The values below come from PMC6476888, “Design and synthesis of anticancer 1-hydroxynaphthalene-2-carboxanilides with a p53 independent mechanism of action” (Scientific Reports, 2019).

Read-outs that look alike come from different tables or passages of the source.

For series [1], the system named is HCT116^+/+. As to the kind of experiment: Antiproliferative assay (MTS, 72 h) on HCT116 wild type. Format: cell-based, human. As to conditions: MTS, 72 h incubation, read-out: Activity IC50 HCT116^+/+. How it is done:
(§1) All of the synthesized compounds were tested for their antiproliferative activity against human colon cancer (Table 1). We used both the wild-type and p53-negative cell lines (HCT116^+/+ and HCT116^−/−, respectively). Mutations in the TP53 gene are present in more than 50% of all cancers and often specifically correspond to a difficult therapy, resistance or a bad prognosis[60]–[63]. The active compounds were additionally tested for their cytotoxicity against normal human fibroblasts. We used 5-fluorouracil (5-FLU), doxorubicin (DOX) and CP-31398 as the standards. 5-FLU is one of the first antimetabolites that was dedicated for cancer treatment and is still used for a wide range of cancers including colon carcinoma. Doxorubicin is a DNA topoisomerase II poison with a high intercalating potency, which is able to induce apoptosis through the p53 pathway. Although DOX has been described as being ineffective in some p53 mutants, its level of activity against the p53 null lines is similar. CP-31398, on the other hand, is an experimental drug in the clinical phase and its mechanism of action is through the reactivation some of p53 mutants. Its activity against the p53 null cell lines is greatly diminished and is actually lower than its cytotoxicity.
(§2) The human colon cancer cell line HCT116 wild type was obtained from ATCC and the normal human fibroblast cell lines NHDF were obtained from PromoCell. The human colon cancer cell line HCT116 with a p53 deletion (p53^−/−) was kindly provided by Prof. M. Rusin from the Maria Sklodowska-Curie Memorial Cancer Centre and Institute of Oncology in Gliwice, Poland[89]. The cells were grown as monolayer cultures in Dulbecco’s modified Eagle’s medium with the antibiotic gentamicin (200 μL/100 mL medium) in 75 cm^2 flasks (Nunc). The DMEM for the HCT116 were supplemented with 12% heat-inactivated fetal bovine serum (Sigma-Aldrich, St. Louis, MO, USA) and for NHDF with 15% non-inactivated fetal bovine serum (Sigma Aldrich, St. Louis, MO, USA). The cells were cultured under standard conditions at 37 °C in a humidified atmosphere at 5% CO2.
(§3) The cells were seeded in 96-well plates (Nunc) at a density of 5,000 cells/well (HCT116) and 4,000 cells/well (NHDF) and incubated at 37 °C for 24 h. The assay was performed following a 72 h incubation with varying concentrations of the compounds that were being tested. Then, 20 µL of CellTiter 96® AQueous One Solution-MTS (Promega) was added to each well (with 100 µL DMEM without phenol red) and incubated for 1 h at 37 °C. The optical densities of the samples were analyzed at 490 nm using a Synergy 4 multi-plate reader (BioTek, Winooski, VT, USA). The results are expressed as the percentage of the control and were calculated as the inhibitory concentration (IC50) values (using a GraphPad Prism 7). The IC50 parameter was defined as the compound concentration that was necessary to reduce the proliferation of cells to 50% of the untreated control. Each individual compound was tested in triplicate in a single experiment with each experiment being repeated three or four times.

For series [2], the system named is NHDF. As to the kind of experiment: Cytotoxicity (MTS, 72 h) against normal human fibroblasts. It counts as cell-based. As to conditions: for IC50: MTS, 72 h incubation. How it is done: as §1, §2, §3
In series [3] the test system is HCT116^−/−. Description: Antiproliferative assay (MTS, 72 h) on HCT116 with p53 deletion. It counts as cell-based, human. The conditions noted are these: MTS, 72 h incubation. How it is done:
as §1, §2, §3

Compound `O=C(Nc1c(F)c(F)c(F)c(F)c1F)c1ccc2ccccc2c1O` [4n] came in with a melting point of 230 to 234 °C. Besides, the IC50 in series [1] (Homo sapiens, HCT-116) amounted to 11.6 ± 0.74 µM. Moreover, the IC50 in series [2] (Homo sapiens, NHDF) was more than 25 µM. For the same compound, the IC50 in series [3] (Homo sapiens, HCT-116) was 17.5 ± 0.76 µM.

`O=C(Nc1cccc(Cl)c1F)c1ccc2ccccc2c1O` [4o] had a melting point of 172 to 174 °C. Moreover, the IC50 in series [1] (Homo sapiens, HCT-116) was found to be 8.78 ± 2.18 µM. In series [2] (Homo sapiens, NHDF), the IC50 was more than 25 µM. Moreover, the IC50 in series [3] (Homo sapiens, HCT-116) was 6.76 ± 2.37 µM.

The compound `O=C(Nc1cccc(C(F)(F)F)c1F)c1ccc2ccccc2c1O` [4p] yielded a melting point of 174 to 175 °C. Also, the IC50 in series [1] (Homo sapiens, HCT-116) turned out to be 6.5 ± 1.16 µM. Also, in series [2] (Homo sapiens, NHDF), the IC50 is 24.4 ± 2.51 µM. In addition, the IC50 in series [3] (Homo sapiens, HCT-116) was determined as 5.45 ± 1.72 µM.

For `O=C(Nc1c(Cl)cc(C(F)(F)F)cc1Cl)c1ccc2ccccc2c1O` [5v], the melting point was 191 to 194 °C. Further, the IC50 in series [1] (Homo sapiens, HCT-116) was more than 25 µM. Further, in series [3] (Homo sapiens, HCT-116), the IC50 is more than 25 µM.

`O=C(Nc1ccc(Cl)cc1Br)c1ccc2ccccc2c1O` [6h]: the IC50 in series [1] was 9.54 ± 2.71 µM; in series [2] it was more than 25 µM; in series [3], 13.2 ± 2.3 µM.

Consider `O=C(Nc1cc(C(F)(F)F)ccc1Br)c1ccc2ccccc2c1O` [6k], for which the figures for the IC50 in series [1], in series [2] and in series [3] were 8.18 ± 1.72 µM, 22.2 ± 0.83 µM and 7.15 ± 1.96 µM, respectively.

`O=C(Nc1c(Br)cc(F)c(Cl)c1Br)c1ccc2ccccc2c1O` [6m]: the melting point lay within 244 to 247 °C. For the same compound, the IC50 in series [1] (Homo sapiens, HCT-116) is more than 25 µM. For the same compound, in series [3] (Homo sapiens, HCT-116), the IC50 was more than 25 µM.

Take `O=C(Nc1cccc(C(F)(F)F)c1)c1ccc2ccccc2c1O` [7b]: the IC50 in series [1] is 6.25 ± 0.47 µM; in series [2], more than 25 µM; in series [3] it was 1.39 ± 0.29 µM.

For the compound `O=C(Nc1ccc(C(F)(F)F)cc1)c1ccc2ccccc2c1O` [7c], the IC50 in series [1] was 4.31 ± 0.51 µM; in series [2] it was 16.6 ± 2.17 µM; in series [3], 1.07 ± 0.26 µM.

`O=C(Nc1ccc(C(F)(F)F)cc1C(F)(F)F)c1ccc2ccccc2c1O` [7d]: the IC50 in series [1] was 11.3 ± 1.31 µM; in series [2] it was more than 25 µM; in series [3] it was 8.69 ± 1.02 µM.

With `O=C(Nc1cc(C(F)(F)F)ccc1C(F)(F)F)c1ccc2ccccc2c1O` [7e], the IC50 in series [1] was found to be 4.44 ± 1.16 µM; in series [2], 22.9 ± 2.1 µM; in series [3], 8.53 ± 3.37 µM.

In the case of `O=C(Nc1ccc(F)cc1C(F)(F)F)c1ccc2ccccc2c1O` [7g], the melting point was in the range of 135 to 137 °C. Moreover, in series [1] (Homo sapiens, HCT-116), the IC50 was more than 25 µM. For the same compound, the IC50 in series [3] (Homo sapiens, HCT-116) was more than 25 µM.

As to `O=C(Nc1ccc([N+](=O)[O-])cc1C(F)(F)F)c1ccc2ccccc2c1O` [7j], the IC50 in series [1] was determined as 2.04 ± 0.71 µM; in series [2] it was 12.6 ± 1.32 µM; in series [3], 4.74 ± 1.68 µM.

Consider `COc1ccc(NC(=O)c2ccc3ccccc3c2O)cc1C(F)(F)F` [7k], for which the melting point fell in the range of 183 to 186 °C. For the same compound, the IC50 in series [1] (Homo sapiens, HCT-116) was more than 25 µM. In addition, the IC50 in series [3] (Homo sapiens, HCT-116) was more than 25 µM.

Compound `Cc1ccc(NC(=O)c2ccc3ccccc3c2O)cc1C(F)(F)F` [7l] yielded a melting point of 168 to 171 °C. The IC50 in series [1] (Homo sapiens, HCT-116) was more than 25 µM. The IC50 in series [3] (Homo sapiens, HCT-116) was more than 25 µM.

`O=C(Nc1ccc([N+](=O)[O-])c(C(F)(F)F)c1)c1ccc2ccccc2c1O` [7p]: the IC50 in series [1] was found to be 1.64 ± 0.47 µM; in series [2], 9.68 ± 1.49 µM; in series [3] it was 1.39 ± 0.44 µM.

Turning to `O=C(Nc1ccccc1[N+](=O)[O-])c1ccc2ccccc2c1O` [8a], the IC50 in series [1] is 23.3 ± 3.77 µM; in series [2], 22.7 ± 2.71 µM; in series [3], more than 25 µM.

As for `O=C(Nc1cccc([N+](=O)[O-])c1)c1ccc2ccccc2c1O` [8b], the IC50 was 6.82 ± 1.17 µM in series [1], more than 25 µM in series [2] and 3.1 ± 0.63 µM in series [3].

For the compound `O=C(Nc1ccc([N+](=O)[O-])cc1)c1ccc2ccccc2c1O` [8c], the IC50 was determined as 0.41 ± 0.05 µM in series [1], 12.3 ± 1.49 µM in series [2] and 0.69 ± 0.09 µM in series [3]. In series [2] (cytotoxicity against the normal cell line vs HCT116), the selectivity index stood at 30.

What is called melting point is the temperature of the solid-liquid transition.
